pIC50: −log10 of the molar value.
Molecular target: T1, SYK (Homo sapiens, UniProt P43405)
T1 construct: The SYK kinase domain (residues 356-635) is amplified via PCR; made in house; host or cells: Sf9 insect cells (baculovirus, pFastBac1)
Assay: SYK inhibition: in vitro assay of SYK-mediated phosphorylation of FAM-labeled substrate (Caliper LC-3000)
Assay type: biochemical
Settings: SYK kinase domain (residues 356-635); 2.4 nM SYK and 45 μM ATP, 3 μM 5FAM-KKKKEEIYFFFG-NH2, RT 60 min, pH 7.3; pIC50 = −log(IC50), IC50 molar
Description: The ability of compounds to inhibit SYK activity may be assessed using a variety of methods, including in vitro and in vivo assays. The following in vitro assay measures a test compound's ability to inhibit SYK-mediated phosphorylation of a FAM-labeled SYK-specific substrate (5FAM-KKKKEEIYFFFG-NH2).
SYK protein is prepared from cDNA encoding human spleen tyrosine kinase and is expressed in insect cells using a baculovirus expression vector. The cDNA (IMAGE: 3542895) is purchased from Open Biosystems. The SYK kinase domain (residues 356-635) is amplified via PCR and cloned into plasmid pFastBacl (Invitrogen) at BamHI/XbaI sites. Recombinant plasmid encoding Met-Ala-Lys-SYK(356-635)-HHHHHH is sequenced and transformed into E. coli DH10Bac strain. The recombinant bacmid DNA is isolated and transfected into Sf9 insect cells. Recombinant virus is harvested 72 h after transfection. High titer viral stock is prepared by infecting Sf9 cells at a multiplicity of infection (MOI) of approximately 0.01. A suspension of Sf9 cells (10 L) is infected with recombinant virus (MOI=5) and is incubated in a Wave Bioreactor (GE-Healthcare) for 48 h. The cells are harvested and stored at −80° C.
To purify the expressed protein, the frozen Sf9 cells (10 L) are broken into small (<1 cm) particles and suspended in a lysis buffer (300 mL) containing 20 mM Tris (pH 7.6), 0.25 mM TCEP, 100 mM NaCl, 5% glycerol and a protease inhibitor. The suspension is stirred at RT until completely thawed, lysed an additional 2-4 min on a rotary blade homogenizer, and then centrifuged at 4200 g for 1 h. Following centrifugation, the supernatant is poured through cheese cloth and combined with a nickel chelating resin (Probond Resin™, Invitrogen) which is pre-equilibrated in a wash buffer containing 10 mM Tris (pH 7.6), 0.25 mM TCEP, 300 mM NaCl, 5% glycerol, and 20 mM imidazole. The mixture is agitated for 3 h in a cold room and then centrifuged at 900 g for 10 min. The resin is dispersed in wash buffer (50 mL), centrifuged for 10 min at 900 g, re-dispersed in a small amount of wash buffer (5 mL), and then pour into a disposable Poly-Prep chromatography column, through which wash buffer is passed by gravity until no protein is observed in coomassie buffer (about 120 mL of wash buffer). An elution buffer (30 mL) containing 10 mM HEPES (pH 7.4), 150 mM NaCl, 10% glycerol, 5 mM DTT, and 400 mM imidazole is used to elute the SYK protein from the resin. The eluate is concentrated (5 mL) and further purified on a Superdex 200 column (1.2 mL/min for 160 min, 10 mM HEPES (pH 7.4), 10 mM NaCl, 10 mM MgCl, 0.1 mM EDTA, and 0.25 mM TCEP). The chromatographed fractions are run on SDS-PAGE and the requisite fractions are pooled and concentrated. Final delivery buffer is 10 mM HEPES (pH 7.4), 10 mM Methione, 150 mM NaCl, 10% glycerol, 5 mM DTT.
SYK inhibition is determined using a black 384 well plate format in buffer containing 50 mM HEPES, 10 mM NaCl, 10 mM MgCl2, 0.2 mM EDTA, 0.01% EDA (Brij®35), 1 mM DTT, and 0.1 mg/ml BSA at pH 7.3. Each test compound is prepared in DMSO using 2-fold serial dilutions for 11 data points, which are added to the buffer so that each dilution contains 3% DMSO. To each well is added 2 μL of 3 μM SFAM-KKKKEEIYFFFG-NH2 (in buffer), 2 μL of diluted test compound (3% DMSO in buffer), and 2 μL of 2.4 nM SYK and 45 μM ATP (in buffer). The reaction mixture is incubated at RT for 60 min, and quenched by adding 50 mM Hepes, 30 mM EDTA, 0.1% Triton X-100 (pH 7.3). To quantify the fluorescent-labeled substrate and product following reaction, the test plate is loaded on a Caliper LC-3000, which measures percent of conversion by microfluidic-based separation. Corresponding IC50 values are calculated by non-linear curve fitting of the compound concentrations and percent of inhibition to the standard IC50 equation and reported as pIC50, i.e., −log(IC50), where IC50 is molar concentration.

| SMILES | pIC50 |
| --- | --- |
| Cc1cc(-c2nc(N[C@@H]3CCOC[C@@H]3N)c(F)c3c2C(=O)N[C@@H]3C)sn1 [Example 56, (R)-6-(((3R,4R)-3-Aminotetrahydro-2H-pyran-4-yl)amino)-7-fluoro-1-methyl-4-(3-methylisothiazol-5-yl)-1H-pyrrolo[3,4-c]pyridin-3(2H)-one] | 7.80 |
| N[C@H]1COCC[C@H]1Nc1nc(-c2cc(F)cs2)c2c(c1F)CNC2=O [Example 27, 6-((3R,4R)-3-Aminotetrahydro-2H-pyran-4-ylamino)-7-fluoro-4-(4-fluorothiophene-2-yl)-1H-pyrrolo[3,4-c]pyridin-3(2H)-one] | 8.30 |
| Cc1ccn2ncc(-c3nc(N[C@@H]4CCCC[C@@H]4N)c(F)c4c3C(=O)N[C@@H]4C)c2c1 [Example 54, (R)-6-(((1R,2S)-2-Aminocyclohexyl)amino)-7-fluoro-1-methyl-4-(5-methylpyrazolo[1,5-a]pyridin-3-yl)-1H-pyrrolo[3,4-c]pyridin-3(2H)-one] | 7.30 |
| N[C@H]1COCC[C@H]1Nc1nc(CCc2ccccc2)c2c(c1F)CNC2=O [Example 48] | 7.00 |
| N[C@H]1CCCC[C@H]1Nc1nc(-c2cc3ncccc3s2)c2c(c1F)CNC2=O [Example 26, 6-((1R,2S)-2-Aminocyclohexylamino)-7-fluoro-4-(thieno[3,2-b]pyridin-2-yl)-1H-pyrrolo[3,4-c]pyridin-3(2H)-one] | 8.30 |
| N[C@H]1CCCC[C@H]1Nc1nc(-c2cc3cc(F)ccc3s2)c2c(c1F)CNC2=O [Example 16, 6-(((1R,2S)-2-Aminocyclohexyl)amino)-7-fluoro-4-(5-fluorobenzo[b]thiophen-2-yl)-1H-pyrrolo[3,4-c]pyridin-3(2H)-one] | 9.50 |
| N#Cc1ccc(-c2nc(N[C@@H]3CCOC[C@@H]3N)c(F)c3c2C(=O)NC3)s1 [Example 8, 5-(6-((3R,4R)-3-Aminotetrahydro-2H-pyran-4-ylamino)-7-fluoro-3-oxo-2,3-dihydro-1H-pyrrolo[3,4-c]pyridin-4-yl)thiophene-2-carbonitrile] | 7.70 |
| N[C@H]1COCC[C@H]1Nc1nc(-c2cc3ccncc3s2)c2c(c1F)CNC2=O [Example 9, 6-((3R,4R)-3-Aminotetrahydro-2H-pyran-4-ylamino)-7-fluoro-4-(thieno[2,3-c]pyridin-2-yl)-1H-pyrrolo[3,4-c]pyridin-3(2H)-one] | 9.70 |
| Cn1ncc2sc(-c3nc(N[C@@H]4CCCC[C@@H]4N)c(F)c4c3C(=O)NC4)cc21 [Example 29, 6-((1R,2S)-2-Aminocyclohexylamino)-7-fluoro-4-(1-methyl-1H-thieno[3,2-c]pyrazol-5-yl)-1H-pyrrolo[3,4-c]pyridin-3(2H)-one] | 10.00 |
| N[C@H]1CCCC[C@H]1Nc1nc(/C=C/c2ccc(F)cc2)c2c(c1F)CNC2=O [Example 45, 6-((1R,2S)-2-Aminocyclohexylamino)-7-fluoro-4-(4-fluorostyryl)-1H-pyrrolo[3,4-c]pyridin-3(2H)-one] | 8.60 |
| N[C@H]1CCCC[C@H]1Nc1nc(-c2ccns2)c2c(c1F)CNC2=O [Example 5, 6-((1R,2S)-2-Aminocyclohexylamino)-7-fluoro-4-(isothiazol-5-yl)-1H-pyrrolo[3,4-c]pyridin-3 (2H)-one] | 8.40 |
| N[C@H]1COCC[C@H]1Nc1nc(-c2cc3n(c2)CCC3=O)c2c(c1F)CNC2=O [Example 41, 6-((3R,4R)-3-Aminotetrahydro-2H-pyran-4-ylamino)-7-fluoro-4-(1-oxo-2,3-dihydro-1H-pyrrolizin-6-yl)-1H-pyrrolo[3,4-c]pyridin-3(2H)-one] | 7.70 |
| N[C@H]1COCC[C@H]1Nc1nc(-c2cc3ncccc3s2)c2c(c1F)CNC2=O [Example 25, 6-((3R,4R)-3-Aminotetrahydro-2H-pyran-4-ylamino)-7-fluoro-4-(thieno[3,2-b]pyridin-2-yl)-1H-pyrrolo[3,4-c]pyridin-3(2H)-one] | 7.90 |
| N[C@H]1COCC[C@H]1Nc1nc(C#Cc2ccccc2)c2c(c1F)CNC2=O [Example 44, 6-((3R,4R)-3-Aminotetrahydro-2H-pyran-4-ylamino)-7-fluoro-4-(phenylethynyl)-1H-pyrrolo[3,4-c]pyridin-3(2H)-one] | 7.20 |
| N[C@H]1COCC[C@H]1Nc1nc(-c2cc(C3CC3)ns2)c2c(c1F)CNC2=O [Example 6, 6-((3R,4R)-3-Aminotetrahydro-2H-pyran-4-ylamino)-4-(3-cyclopropylisothiazol-5-yl)-7-fluoro-1H-pyrrolo[3,4-c]pyridin-3(2H)-one] | 9.10 |
| Cc1nn(C)c2sc(-c3nc(N[C@@H]4CCOC[C@@H]4N)c(F)c4c3C(=O)NC4)cc12 [Example 37, 6-((3R,4R)-3-Aminotetrahydro-2H-pyran-4-ylamino)-4-(1,3-dimethyl-1H-thieno[2,3-c]pyrazol-5-yl)-7-fluoro-1H-pyrrolo[3,4-c]pyridin-3(2H)-one] | 9.50 |
| N[C@H]1COCC[C@H]1Nc1nc(/C=C/c2ccc(Cl)cc2)c2c(c1F)CNC2=O [Example 51] | 8.70 |
| N[C@H]1COCC[C@H]1Nc1nc(-c2cc3cccnc3s2)c2c(c1F)CNC2=O [Example 13, 6-((3R,4R)-3-Aminotetrahydro-2H-pyran-4-ylamino)-7-fluoro-4-(thieno[2,3-b]pyridin-2-yl)-1H-pyrrolo[3,4-c]pyridin-3(2H)-one] | 9.60 |
| Cc1c2sc(-c3nc(N[C@@H]4CCOC[C@@H]4N)c(F)c4c3C(=O)NC4)cc2nn1C [Example 34, 6-((3R,4R)-3-Aminotetrahydro-2H-pyran-4-ylamino)-4-(2,3-dimethyl-2H-thieno[3,2-c]pyrazol-5-yl)-7-fluoro-1H-pyrrolo[3,4-c]pyridin-3(2H)-one] | 8.90 |
| Cn1ncc2sc(-c3nc(N[C@@H]4CCOC[C@@H]4N)c(F)c4c3C(=O)NC4)cc21 [Example 30, 6-((3R,4R)-3-Aminotetrahydro-2H-pyran-4-ylamino)-7-fluoro-4-(1-methyl-1H-thieno[3,2-c]pyrazol-5-yl)-1H-pyrrolo[3,4-c]pyridin-3(2H)-one] | 10.00 |
| N[C@H]1COCC[C@H]1Nc1nc(-c2cc3c(F)cccc3s2)c2c(c1F)CNC2=O [Example 23, 6-((3R,4R)-3-Aminotetrahydro-2H-pyran-4-ylamino)-7-fluoro-4-(4-fluorobenzo[b]thiophen-2-yl)-1H-pyrrolo[3,4-c]pyridin-3(2H)-one] | 9.40 |
| Cc1nn(C)c2cc(-c3nc(N[C@@H]4CCCC[C@@H]4N)c(F)c4c3C(=O)NC4)sc12 [Example 31, 6-((1R,2S)-2-Aminocyclohexylamino)-4-(1,3-dimethyl-1H-thieno[3,2-c]pyrazol-5-yl)-7-fluoro-1H-pyrrolo[3,4-c]pyridin-3(2H)-one] | 9.90 |
| Cc1nn(C)c2cc(-c3nc(N[C@@H]4CCOC[C@@H]4N)c(F)c4c3C(=O)NC4)sc12 [Example 32, 6-((3R,4R)-3-Aminotetrahydro-2H-pyran-4-ylamino)-4-(1,3-dimethyl-1H-thieno[3,2-c]pyrazol-5-yl)-7-fluoro-1H-pyrrolo[3,4-c]pyridin-3(2H)-one] | 9.70 |
